Molecules are shown by their SMILES.

Experimental findings from patent US9365522B2, “Pyrazole amide derivative” (AMGEN INC., priority 2015, dated 2016) are described below.

For this assay, the target named is T1, ligand binding domain of human ROR gamma (Homo sapiens, UniProt P51449).
T1 construct: NM_001001523; expressed in transfected cells; host or cells: HEK293T
T1 sequence (P51449 247-497 isoform P51449-2): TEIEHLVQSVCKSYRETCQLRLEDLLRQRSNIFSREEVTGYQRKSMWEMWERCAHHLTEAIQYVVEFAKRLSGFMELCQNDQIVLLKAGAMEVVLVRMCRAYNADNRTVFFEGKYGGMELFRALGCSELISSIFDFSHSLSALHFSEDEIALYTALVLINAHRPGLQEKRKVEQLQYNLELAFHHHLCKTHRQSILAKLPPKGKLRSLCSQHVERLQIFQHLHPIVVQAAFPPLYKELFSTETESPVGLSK
Put plainly: ROR gamma reporter gene assay (GAL4-RORγ LBD luciferase, Dual-Glo). The format is cell-based. As to conditions: HEK293T cells transfected with pM-ROR gamma, 8 concentrations 3.5 nM to 10.5 μM, 24 h incubation; read-out: result (pIC50, inhibition of RORγ transcriptional activity) (converted). In outline: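 Inhibition of RORγ-driven transcription was measured in HEK293T cells expressing a GAL4 fusion of the human RORγ LBD (aa 247-497), with renilla luciferase as internal control. Cells in 10% charcoal-stripped serum received compound (3.5 nM–10.5 μM) for 24 h.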
(In general: Reporter assays use an easily measured gene product as a stand-in for the process of interest.)
With `O=C(CN(Cc1ccc(F)cc1)C(=O)c1cnn(C23CCC(C(=O)O)(CC2)C3)c1C(F)(F)F)c1c(Cl)cncc1Cl` [Example 177, 4-(4-((2-(3,5-dichloropyridin-4-yl)-2-oxoethyl)-((4-fluorophenyl)methyl)carbamoyl)-5-(trifluoromethyl)pyrazol-1-yl)bicyclo[2.2.1]heptane-1-carboxylic acid], the IC50 was 141000 pM.
On to `C[C@]1(C(=O)O)CC[C@H](n2ncc(C(=O)N(CC(=O)c3c(Cl)cncc3Cl)Cc3cc(F)cc(F)c3)c2C(F)F)CC1` [Example 178, trans-4-(4-((2-(3,5-dichloropyridin-4-yl)-2-oxoethyl)-((3,5-difluorophenyl)methyl)carbamoyl)-5-(difluoromethyl)pyrazol-1-yl)-1-methylcyclohexane-1-carboxylic acid], for which the IC50 is 4.37e+06 pM.
For `O=C(CN(Cc1cc(F)cc(F)c1)C(=O)c1cnn([C@H]2CC[C@H](C(=O)O)CC2)c1C(F)(F)F)c1c(F)cc(F)cc1Cl` [Example 179, trans-4-(4-((2-(2-chloro-4,6-difluorophenyl)-2-oxoethyl)-((3,5-difluorophenyl)methyl)carbamoyl)-5-(trifluoromethyl)pyrazol-1-yl)cyclohexane-1-carboxylic acid], the IC50 is 52500 pM.
Consider `O=C(CN(C(=O)c1cnn([C@H]2CC[C@H](C(=O)O)CC2)c1C(F)(F)F)C1Cc2ccccc2C1)c1c(Cl)cncc1Cl` [Example 180, trans-4-(4-((2-(3,5-dichloropyridin-4-yl)-2-oxoethyl)-(2,3-dihydro-1H-inden-2-yl)carbamoyl)-5-(trifluoromethyl)pyrazol-1-yl)cyclohexane-1-carboxylic acid], for which the IC50 is 112000 pM.
With `O=C(CN(C(=O)c1cnn([C@H]2CC[C@H](C(=O)O)CC2)c1C(F)(F)F)C1CCOCC1)c1c(Cl)cncc1Cl` [Example 181, trans-4-(4-((2-(3,5-dichloropyridin-4-yl)-2-oxoethyl)-(oxan-4-yl)carbamoyl)-5-(trifluoromethyl)pyrazol-1-yl)cyclohexane-1-carboxylic acid], the IC50 is > 1e+07 pM.
For `O=C(CN(C(=O)c1cnn([C@H]2CC[C@H](C(=O)O)CC2)c1C(F)(F)F)C1CCC2(CC1)CC2)c1c(Cl)cncc1Cl` [Example 182, trans-4-(4-((2-(3,5-dichloropyridin-4-yl)-2-oxoethyl)-spiro[2,5]octan-6-ylcarbamoyl)-5-(trifluoromethyl)pyrazol-1-yl)cyclohexane-1-carboxylic acid], the IC50 is 66100 pM.
The result for `CC1(C)CC[C@H](N(CC(=O)c2c(Cl)cncc2Cl)C(=O)c2cnn([C@H]3CC[C@H](C(=O)O)CC3)c2C(F)(F)F)C1` [Example 183, trans-4-(4-((2-(3,5-dichloropyridin-4-yl)-2-oxoethyl)-((1S)-3,3-dimethylcyclopentyl)carbamoyl)-5-(trifluoromethyl)pyrazol-1-yl)cyclohexane-1-carboxylic acid] reads 174000 pM; that for `CC1(C)CC[C@H](N(CC(=O)c2c(Cl)cncc2Cl)C(=O)c2cnn([C@H]3CC[C@H](C(=O)O)CC3)c2C(F)(F)F)C1` [Example 184, trans-4-(4-((2-(3,5-dichloropyridin-4-yl)-2-oxoethyl)-((1S)-3,3-dimethylcyclopentyl)carbamoyl)-5-(trifluoromethyl)pyrazol-1-yl)cyclohexane-1-carboxylic acid], 162000 pM; that for `O=C(CN(C(=O)c1cnn([C@H]2CC[C@H](C(=O)O)CC2)c1C(F)(F)F)C1CCCC1)c1c(Cl)cncc1Cl` [Example 185, trans-4-(4-(cyclopentyl-(2-(3,5-dichloropyridin-4-yl)-2-oxoethyl)carbamoyl)-5-(trifluoromethyl)pyrazol-1-yl)cyclohexane-1-carboxylic acid], 1.82e+06 pM.
The result for `CC(C)(C)CN(CC(=O)c1c(Cl)cncc1Cl)C(=O)c1cnn([C@H]2CC[C@](C)(C(=O)O)CC2)c1C(F)(F)F` [Example 186, trans-4-(4-((2-(3,5-dichloropyridin-4-yl)-2-oxoethyl)-(2,2-dimethylpropyl)carbamoyl)-5-(trifluoromethyl)pyrazol-1-yl)-1-methylcyclohexane-1-carboxylic acid] reads 26900 pM; that for `CC(C1CCCC1)N(CC(=O)c1c(Cl)cncc1Cl)C(=O)c1cnn([C@H]2CC[C@H](C(=O)O)CC2)c1C(F)(F)F` (stereo partly drawn) [Example 187, trans-4-(4-(1-cyclopentylethyl-(2-(3,5-dichloropyridin-4-yl)-2-oxoethyl)carbamoyl)-5-(trifluoromethyl)pyrazol-1-yl)cyclohexane-1-carboxylic acid], 224000 pM; that for `COc1cncc(Cl)c1C(=O)CN(Cc1ccc(F)cc1)C(=O)c1cnn([C@H]2CC[C@H](C(=O)O)CC2)c1C(F)(F)F` [Example 188, trans-4-(4-((2-(3-chloro-5-methoxypyridin-4-yl)-2-oxoethyl)-((4-fluorophenyl)methyl)carbamoyl)-5-(trifluoromethyl)pyrazol-1-yl)cyclohexane-1-carboxylic acid], 275000 pM.
The result for `CC1(C)CCC(N(CC(=O)c2c(Cl)cc(Cl)cc2Cl)C(=O)c2cnn([C@H]3CC[C@H](C(=O)O)CC3)c2C(F)(F)F)CC1` [Example 189, trans-4-(4-((4,4-dimethylcyclohexyl)-(2-oxo-2-(2,4,6-trichlorophenyl)ethyl)carbamoyl)-5-(trifluoromethyl)pyrazol-1-yl)cyclohexane-1-carboxylic acid] reads 30200 pM.
For the compound `CC1(C)CCC(N(CC(=O)c2c(Cl)cc(F)cc2Cl)C(=O)c2cnn([C@H]3CC[C@](C)(C(=O)O)CC3)c2C(F)(F)F)CC1` [Example 190, trans-4-(4-((2-(2,6-dichloro-4-fluorophenyl)-2-oxoethyl)-(4,4-dimethylcyclohexyl)carbamoyl)-5-(trifluoromethyl)pyrazol-1-yl)-1-methylcyclohexane-1-carboxylic acid], the IC50 was 8320 pM.
As for `CC1(C)CCC(N(CC(=O)c2c(Cl)cc(Cl)cc2Cl)C(=O)c2cnn([C@H]3CC[C@](C)(C(=O)O)CC3)c2C(F)(F)F)CC1` [Example 191, trans-4-(4-((4,4-dimethylcyclohexyl)-(2-oxo-2-(2,4,6-trichlorophenyl)ethyl)carbamoyl)-5-(trifluoromethyl)pyrazol-1-yl)-1-methylcyclohexane-1-carboxylic acid], the IC50 is 8910 pM.
For the compound `CC12CCC(CN(CC(=O)c3c(Cl)cncc3Cl)C(=O)c3cnn([C@H]4CC[C@H](C(=O)O)CC4)c3C(F)(F)F)(CC1)C2` [Example 192, trans-4-(4-((2-(3,5-dichloropyridin-4-yl)-2-oxoethyl)-((1-methyl-4-bicyclo[2.2.1]heptanyl)methyl)carbamoyl)-5-(trifluoromethyl)pyrazol-1-yl)cyclohexane-1-carboxylic acid], the IC50 was 11700 pM.
Consider `CC12CCC(CN(CC(=O)c3c(Cl)cc(F)cc3Cl)C(=O)c3cnn([C@H]4CC[C@H](C(=O)O)CC4)c3C(F)(F)F)(CC1)C2` [Example 193, trans-4-(4-((2-(2,6-dichloro-4-fluorophenyl)-2-oxoethyl)-((1-methyl-4-bicycio[2.2.1]heptanyl)methyl)carbamoyl)-5-(trifluoromethyl)pyrazol-1-yl)cyclohexane-1-carboxylic acid], for which the IC50 is 6460 pM.
The result for `O=C(CN(CC1(F)CCCC1)C(=O)c1cnn([C@H]2CC[C@H](C(=O)O)CC2)c1C(F)(F)F)c1c(Cl)cncc1Cl` [Example 194, trans-4-(4-((2-(3,5-dichloropyridin-4-yl)-2-oxoethyl)-((1-fluorocyclopentyl)methyl)carbamoyl)-5-(trifluoromethyl)pyrazol-1-yl)cyclohexane-1-carboxylic acid] reads 14100 pM; that for `O=C(CN(Cc1ccc(F)cc1)C(=O)c1cnn([C@H]2CC[C@H](C(=O)O)CC2)c1C(F)(F)F)c1c(Cl)cc[nH]c1=O` [Example 195, trans-4-(4-((2-(4-chloro-2-oxo-1H-pyridin-3-yl)-2-oxoethyl)-((4-fluorophenyl)methyl)carbamoyl)-5-(trifluoromethyl)pyrazol-1-yl)cyclohexane-1-carboxylic acid], > 1e+07 pM; that for `CC1(C)CCC(N(CC(=O)c2c(Cl)cncc2Cl)C(=O)c2cnn([C@H]3CC[C@](C)(C(=O)O)CC3)c2C(F)F)CC1` [Example 196, trans-4-(4-((2-(3,5-dichloropyridin-4-yl)-2-oxoethyl)-(4,4-dimethylcyclohexyl)carbamoyl)-5-(difluoromethyl)pyrazol-1-yl)-1-methylcyclohexane-1-carboxylic acid], 3.47e+06 pM.
The result for `C[C@]1(C(=O)O)CC[C@H](n2ncc(C(=O)N(CC(=O)c3c(Cl)cc(F)cc3Cl)Cc3cc(F)cc(F)c3)c2C(F)F)CC1` [Example 197, trans-4-(4-((2-(2,6-dichloro-4-fluorophenyl)-2-oxoethyl)-((3,5-difluorophenyl)methyl)carbamoyl)-5-(difluoromethyl)pyrazol-1-yl)-1-methylcyclohexane-1-carboxylic acid] reads 513000 pM; that for `O=C(CN(C(=O)c1cnn([C@H]2CC[C@H](C(=O)O)CC2)c1C(F)(F)F)C1CCOC1)c1c(Cl)cncc1Cl` (stereo partly drawn) [Example 198, trans-4-(4-((2-(3,5-dichloropyridin-4-yl)-2-oxoethyl)-(oxolan3-yl)carbamoyl)-5-(trifluoromethyl)pyrazol-1-yl)cyclohexane-1-carboxylic acid], > 1e+07 pM.
